Laboratory results reported in patent US11691986B2, “PTEFB inhibiting macrocyclic compounds” (Bayer Aktiengesellschaft, priority 2017, dated 2023).
“And” between values parts separate entries of the source, which are not always exact repeats. Equal values may be shown once.

Experiments:
CDK9/CycT1 = target: T1, CDK9/CycT1 (Homo sapiens, UniProt P50750); experiment: CDK9/CycT1 high ATP kinase assay (TR-FRET); assay type: biochemical; conditions: 2 mM ATP; for IC50: Method 1b; for Selectivity high ATP CDK9 over high ATP CDK2: IC50 (high ATP CDK2)/IC50 (high ATP CDK9): minimal values where CDK9 IC50 is at the assay limit of about 1-2 nM
T1 construct: Recombinant full-length His-tagged human CDK9 and CycT1; His; purchased Life Technologies PV4131; host or cells: insect cells
Protocol: 1b. CDK9/CycT1 High ATP Kinase Assay
CDK9/CycT1-inhibitory activity of compounds of the present invention at a high ATP concentration after preincubation of enzyme and test compounds was quantified employing the CDK9/CycT1 TR-FRET assay as described in the following paragraphs.
Recombinant full-length His-tagged human CDK9 and CycT1, expressed in insect cells and purified by Ni-NTA affinity chromatography, were purchased from Life Technologies (Cat. No PV4131). As substrate for the kinase reaction biotinylated peptide biotin-Ttds-YISPLKSPYKISEG (C-terminus in amide form) was used which can be purchased e.g. form the company JERINI peptide technologies (Berlin, Germany).
(§1) For the assay 50 nl of a 100 fold concentrated solution of the test compound in DMSO was pipetted into either a black low volume 384 well microtiter plate or a black 1536 well microtiter plate (both Greiner Bio-One, Frickenhausen, Germany), 2 μl of a solution of CDK9/CycT1 in aqueous assay buffer [50 mM Tris/HCl pH 8.0, 10 mM MgCl2, 1.0 mM dithiothreitol, 0.1 mM sodium ortho-vanadate, 0.01% (v/v) Nonidet-P40 (Sigma)] were added and the mixture was incubated for 15 min at 22° C. to allow pre-binding of the test compounds to the enzyme before the start of the kinase reaction. […] The concentration of CDK9/CycT1 was adjusted depending of the activity of the enzyme lot and was chosen appropriate to have the assay in the linear range, typical concentrations were in the range of 0.5 μg/ml. The reaction was stopped by the addition of 3 μl of a solution of TR-FRET detection reagents (0.33 μM streptavidine-XL665 [Cisbio Bioassays, Codolet, France] and 1.67 nM anti-RB(pSer807/pSer811)-antibody from BD Pharmingen [#558389] and 2 nM LANCE EU-W1024 labeled anti-mouse IgG antibody [Perkin-Elmer, product no. AD0077]) in an aqueous EDTA-solution (167 mM EDTA, 0.2% (w/v) bovine serum albumin in 100 mM HEPES pH 7.5).
(§2) The resulting mixture was incubated 1 h at 22° C. to allow the formation of complex between the phosphorylated biotinylated peptide and the detection reagents. Subsequently the amount of phosphorylated substrate was evaluated by measurement of the resonance energy transfer from the Eu-chelate to the streptavidine-XL. Therefore, the fluorescence emissions at 620 nm and 665 nm after excitation at 350 nm was measured in a TR-FRET reader, e.g. a Pherastar (BMG Labtechnologies, Offenburg, Germany) or a Viewlux (Perkin-Elmer). The ratio of the emissions at 665 nm and at […] was taken as the measure for the amount of phosphorylated substrate. The data were normalised (enzyme reaction without inhibitor=0% inhibition, all other assay components but no enzyme=100% inhibition).

CDK2/CycE = target: T2, CDK2/CycE (Homo sapiens, UniProt P24941); experiment: CDK2/CycE high ATP kinase assay (TR-FRET); assay type: biochemical; conditions: 2 mM ATP, Method 2b
T2 construct: GST; purchased ProQinase GmbH (Freiburg, Germany); host or cells: insect cells (Sf9)
Protocol: 2b. CDK2/CycE High ATP Kinase Assay
CDK2/CycE-inhibitory activity of compounds of the present invention at 2 mM adenosine-tri-phosphate (ATP) was quantified employing the CDK2/CycE TR-FRET (TR-FRET=Time Resolved Fluorescence Energy Transfer) assay as described in the following paragraphs.
Recombinant fusion proteins of GST and human CDK2 and of GST and human CycE, expressed in insect cells (Sf9) and purified by Glutathion-Sepharose affinity chromatography, were purchase from ProQinase GmbH (Freiburg, Germany). As substrate for the kinase reaction biotinylated peptide biotin-Ttds-YISPLKSPYKISEG (C-terminus in amid form) was used which can be purchased e.g. form the company JERINI peptide technologies (Berlin, Germany).
as §1, with “CDK2/CycE” for “CDK9/CycT1”, “about 10 ng/ml.” for “in the range of 0.5 μg/ml.”, “(0.333” for “(0.33”, “AD0077, as an alternative a Terbium-cryptate-labeled anti-mouse IgG antibody from Cisbio Bioassays can be used])” for “AD0077])”
as §2

A2780 cells = experiment: Proliferation assay, A2780 (Cell Titre-Glo); assay type: cell-based; conditions: Homo sapiens; A2780, 72-hour exposure; read-out: Inhibition of A2780 cell proliferation IC50
Protocol: A2780 human ovarian carcinoma cells (ECACC #93112519) and non-adherent MOLM-13 human acute myeloid leukemia cells (DSMZ ACC 554) were seeded at a density of 3,000 cell/well (A2780) or 5,000 cells/well (MOLM-13) in a 96-well multititer plate in 150 μL of growth medium supplemented 10% fetal calf serum. After 24 hours, cell viability of one plate (zero-point plate) was determined with the Cell Titre-Glo Luminescent Cell Viability Assay (Promega), while the medium of the other plates was supplemented with the test substances in various concentrations (0 μM, as well as in the range of 0.0001-10 μM; the final concentration of the solvent dimethyl sulfoxide was adjusted to 0.1%) using a Hewlett-Packard HP D300 Digital Dispenser. Cell viability was assessed after 72-hour exposure with the Cell Titre-Glo Luminescent Cell Viability Assay (Promega). IC50 values (inhibitory concentration at 50% of maximal effect) were determined by means of a 4 parameter fit on measurement data which were normalized to vehicle (DMSO) treated cells (=100%) and measurement readings taken immediately before compound exposure (=0%).

[1] = target: T3, human PTEFb (CDK9/Cyclin T1) (Homo sapiens, UniProt P50750); experiment: Surface Plasmon Resonance PTEFb; assay type: binding; conditions: SPR, 37° C.; for Target residence time: 1/koff; for Kd: * = arithmetic mean of more than one value, read-out: Equilibrium dissociation constant KD
T3 construct: purchased ProQinase, Freiburg, Germany
From the text: 8. Surface Plasmon Resonance PTEFb
The ability of the compounds according to the invention to bind human PTEFb may be determined using surface plasmon resonance (SPR). KD values and koff values may be measured using a Biacore® T200 instrument (GE Healthcare, Uppsala, Sweden).
For SPR measurements, recombinant human PTEFb (CDK9/Cyclin T1 recombinant human active protein kinase purchased from ProQinase, Freiburg, Germany) is immobilized using standard amine coupling (Johnsson B et al, Anal Biochem. 1991 Nov. 1; 198(2):268-77). Briefly, carboxymethylated dextran biosensor chips (CM7, GE Healthcare) are activated with N-ethyl-N′-(3-dimethylaminopropyl)-carbodiimide hydrochloride (EDC) and N-hydroxysuccinimide (NHS) according to the supplier's instructions. Human PTEFb is diluted in 1×HBS-EP+(GE Healthcare) and injected on the activated chip surface. Subsequently, a 1:1 solution of 1 M ethanolamine-HCl (GE Healthcare) and 1×HBS-EP is injected to block unreacted groups, resulting in approximately 4000 response units (RU) of immobilized protein. A reference surface is generated by treatment with NHS-EDC and ethanolamine-HCl. Compounds are dissolved in 100% dimethylsulfoxide (DMSO, Sigma-Aldrich, Germany) to a concentration of 10 mM and subsequently diluted in running buffer (1×HBS-EP+pH 7.4 [generated from HBS-EP+Buffer 10×(GE Healthcare): 0.1 M HEPES, 1.5 M NaCl, 30 mM EDTA and 0.5% v/v Surfactant P20], 1% v/v DMSO). For kinetic measurements, serial dilutions of compound (0.078 nM up to 25 nM) are injected over immobilized protein. Binding kinetics is measured at 37° C. with a flow rate of 100 μl/min in running buffer. Compound concentrations are injected for 70 s followed by a dissociation time of 1100 s. The resulting sensorgrams are double-referenced against the reference surface as well as against blank injections.
The double-referenced sensorgrams are fit to a simple reversible Langmuir 1:1 reaction mechanism as implemented in the Biacore® T200 evaluation software 2.0 (GE Healthcare). In cases were full compound dissociation has not occurred at the end of the dissociation phase, the Rmax parameter (response at saturation) is fit as local variable. In all other cases, Rmax is fit as global variable.

bronchospasms = conditions: in vivo; cited from earlier work

T3 sequence (P50750 whole entry): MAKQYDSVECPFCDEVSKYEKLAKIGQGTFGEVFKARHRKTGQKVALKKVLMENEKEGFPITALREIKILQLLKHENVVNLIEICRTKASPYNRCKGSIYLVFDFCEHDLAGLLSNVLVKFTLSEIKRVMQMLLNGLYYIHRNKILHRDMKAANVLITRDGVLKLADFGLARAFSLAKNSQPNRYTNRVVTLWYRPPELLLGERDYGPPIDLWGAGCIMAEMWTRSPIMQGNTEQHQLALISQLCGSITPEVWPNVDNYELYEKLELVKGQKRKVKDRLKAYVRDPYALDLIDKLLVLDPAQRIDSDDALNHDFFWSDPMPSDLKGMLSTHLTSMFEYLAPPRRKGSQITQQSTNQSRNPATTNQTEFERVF
T3 sequence (O60563 whole entry partner): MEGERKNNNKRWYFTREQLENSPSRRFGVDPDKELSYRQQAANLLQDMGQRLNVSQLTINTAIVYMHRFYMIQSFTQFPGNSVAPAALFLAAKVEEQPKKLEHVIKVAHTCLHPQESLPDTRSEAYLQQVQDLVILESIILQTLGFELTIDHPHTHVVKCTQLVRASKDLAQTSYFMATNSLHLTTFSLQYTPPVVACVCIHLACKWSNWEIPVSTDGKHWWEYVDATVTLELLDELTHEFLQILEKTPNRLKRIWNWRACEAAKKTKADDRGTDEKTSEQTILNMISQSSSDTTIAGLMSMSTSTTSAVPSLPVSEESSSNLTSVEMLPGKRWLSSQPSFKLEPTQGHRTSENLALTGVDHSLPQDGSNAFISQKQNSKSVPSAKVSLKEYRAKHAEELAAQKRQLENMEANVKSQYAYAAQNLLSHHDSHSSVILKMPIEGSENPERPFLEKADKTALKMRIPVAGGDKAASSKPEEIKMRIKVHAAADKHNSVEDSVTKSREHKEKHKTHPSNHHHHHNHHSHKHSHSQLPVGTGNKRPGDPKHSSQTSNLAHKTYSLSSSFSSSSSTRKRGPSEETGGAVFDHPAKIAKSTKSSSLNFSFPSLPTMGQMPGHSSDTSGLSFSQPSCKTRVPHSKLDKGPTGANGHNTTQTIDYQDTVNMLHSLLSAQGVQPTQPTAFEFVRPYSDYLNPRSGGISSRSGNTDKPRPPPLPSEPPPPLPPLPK
T1 sequence (P50750 whole entry): as the sequence (P50750 whole entry) above
T1 sequence (O60563 whole entry partner): as the sequence (O60563 whole entry partner) above

| Structure (SMILES) | IC50 (CDK9/CycT1) | Selectivity high ATP CDK9 over high ATP CDK2: IC50 (high ATP CDK2)/IC50 (high ATP CDK9) (CDK9/CycT1) | IC50 (CDK2/CycE) | IC50 (A2780 cells) | Target residence time ([1]; * = arithmetic mean) | Kd [1] | Dissociation rate constant koff ([1]; * = arithmetic mean, < = below what is resolvable) | protection against bronchospasms (duration) (bronchospasms) |
| --- | --- | --- | --- | --- | --- | --- | --- | --- |
| CC(C)(C)OC(=O)N=S(C)(=O)Cc1cc2cc(c1)OCCCCCNc1cc(ccc1F)-c1nc(ncc1F)N2 (racemic) [Example 4, (rac)-tert-butyl [{[3,21-difluoro-13-oxa-5,7,19,26-tetraazatetracyclo[18.3.1.1^2,6.1^8,12]hexacosa-1(24),2(26),3,5,8(25),9,11,20,22-nonaen-10-yl]methyl}(methyl)oxido-λ^6-sulfanylidene]carbamate] | 1.4 nM | 2740 | 3670 nM | 31 nM |  |  |  |  |
| CS(=N)(=O)Cc1cc2cc(c1)OCCCCCNc1cc(ccc1F)-c1nc(ncc1F)N2 (racemic) [Example 5, (rac)-3,21-difluoro-10-[(S-methylsulfonimidoyl)methyl]-13-oxa-5,7,19,26-tetraazatetracyclo[18.3.1.1^2,6.1^8,12]hexacosa-1(24),2(26),3,5,8(25),9,11,20,22-nonaene] | 1.6 nM | 216 | 357 nM | 3.4 nM |  |  |  |  |
| CS(=N)(=O)Cc1cc2nc(c1)OCCCCNc1cc(ccc1F)-c1cc(ncc1F)N2 (racemic) [Example 6, (rac)-3,20-difluoro-10-[(S-methylsulfonimidoyl)methyl]-13-oxa-5,7,18,24-tetraazatetracyclo[17.3.1.1^2,6.1^8,12]pentacosa-1(23),2(25),3,5,8(24),9,11,19,21-nonaene] | 4 nM | 6.3 | 25 nM | 6.7 nM |  |  |  |  |
| CSCc1cc2cc(c1)OC(C)CCCNc1cc(ccc1F)-c1nc(ncc1F)N2 (racemic) [Example 7, (rac)-3,20-difluoro-14-methyl-10-[(methylsulfanyl)methyl]-13-oxa-5,7,18,25-tetraazatetracyclo[17.3.1.1^2,6.1^8,12]pentacosa-1(23),2(25),3,5,8(24),9,11,19,21-nonaene] | 3.9 nM | 762 | 2980 nM | 71 nM |  |  |  |  |
| CS(=N)(=O)Cc1cc2cc(c1)OCCCCNc1cc(ccc1F)-c1nc(ncc1F)N2 (single isomer, unassigned) [Example 9, 3,20-difluoro-10-[(S-methylsulfonimidoyl)methyl]-13-oxa-5,7,18,25-tetraazatetracyclo[17.3.1.1^2,6.1^8,12]pentacosa-1(23),2(25),3,5,8(24),9,11,19,21-nonaene] | 2.3 nM | 37 | 85 nM |  | > 208 min | 0.046 nM and 0.022 nM and 0.015 nM and 0.062 nM and 0.11 nM and 0.031 nM and 0.07 nM and 0.054 nM |  |  |
| CS(=N)(=O)Cc1cc2cc(c1)OCCCCNc1cc(ccc1F)-c1nc(ncc1F)N2 (single isomer, unassigned) [Example 10, 3,20-difluoro-10-[(S-methylsulfonimidoyl)methyl]-13-oxa-5,7,18,25-tetraazatetracyclo[17.3.1.1^2,6.1^8,12]pentacosa-1(23),2(25),3,5,8(24),9,11,19,21-nonaene] | 1.6 nM | 79 | 130 nM |  | 37* min | 0.15 nM | 4.5E−4* 1/s |  |
| C[N+]1(C)[C@@H]2C[C@@H](OC(=O)C(O)(c3cccs3)c3cccs3)C[C@H]1[C@@H]1O[C@@H]12 [tiotropium] |  |  |  |  |  |  |  | more than 6 hours |
